The values below come from patent publication US8889671B2, “Compounds and methods for treating bacterial infections” (AstraZeneca AB, priority 2013, dated 2014).

In experiment [1] the test system is variants of S. aureus and S. pyogenes ARC838. The experiment is described as follows: Susceptibility of Example 5 serial-passage variants to comparators. In kind it is cell-based, Staphylococcus aureus; Streptococcus pyogenes. The conditions noted are these: variants after twenty passages with Example 5.
Experiment [2] has as its system 7 S. aureus strains and 1 strain of Streptococcus pyogenes. Put plainly: Minimum bactericidal concentration (MBC). In kind it is cell-based, Staphylococcus aureus; Streptococcus pyogenes. The conditions noted are these: 7 S. aureus strains and 1 S. pyogenes strain.
A further experiment deals with Neisseria gonorrhoeae. The experiment is described as follows: MIC against 100 N. gonorrhoeae isolates, CLSI reference agar dilution. Particulars: all 100 N. gonorrhoeae isolates. The format is cell-based.
The target of experiment [3] is Escherichia coli DNA gyrase A/B tetramer (Escherichia coli (strain K12), UniProt P0AES4+P0AES6). Put plainly: DNA gyrase supercoiling activity fluorescence polarisation assay. In kind it is biochemical. The conditions noted are these: Eco Gyr FP Mean IC50, E. coli DNA gyrase supercoiling, 0.3 mM ATP. The essentials:
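IC50 derived by nonlinear regression from BODIPY-FL fluorescence anisotropy, read 60 min after quenching with labelled triplex-forming probe (pH 3.5). Reaction: 5 nM gyrase tetramer, 130 micrograms/mL relaxed plasmid, 0.3 mM ATP, 4 mM MgCl2, pH 7.5, typically 30 min at ambient temperature, 5-10 compound concentrations.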
Background: Polarisation of emitted light reports the rotation of a fluorescent probe.

The subject of the next experiment is Pseudomonas aeruginosa. The experiment is described as follows: Susceptibility testing (MIC) Assay 2, broth microdilution. In kind it is cell-based. The conditions noted are these: PAO1, read-out: Pae MIC. A general note: In broth dilution the organism is exposed to a series of concentrations in liquid medium.
For a further experiment, the system named is Klebsiella pneumoniae. Described as above. In kind it is cell-based. Particulars: clinical isolate, mucoid, read-out: Kpn MIC.
The subject of a further experiment is Haemophilus influenzae. The experiment is described as above. In kind it is cell-based. The conditions noted are these: ATCC51907, Haemophilus influenzae, ATCC 51907, in vivo strain, read-out: Hin MIC.
The next experiment concerns Escherichia coli. The description is as above. In kind it is cell-based. Particulars: K12, read-out: Eco MIC.
The next experiment concerns Staphylococcus aureus. Put plainly: Susceptibility testing (MIC) Assay 1, broth microdilution. The format is cell-based. Particulars: Staphylococcus aureus.
The next experiment has as its system Streptococcus pneumoniae. The description is as above. The format is cell-based.
For a further experiment, the system named is Streptococcus pyogenes. The experiment is described as above. In kind it is cell-based. Particulars: Streptococcus pyogenes, Streptococcus pyrgenes, in vivo strain; read-out: Spy MIC.
The mark [4] stands for this setting: Neisseria gonorrhoeae, read-out: MIC50.
The mark [5] stands for this setting: Neisseria gonorrhoeae, read-out: MIC90.
The mark [6] stands for this setting: Staphylococcus aureus in vivo strain, MSQS, read-out: Sau(d) MIC.
Setting [7] is: in vivo strain, MRQR, read-out: Sau(e) MIC.
The mark [8] stands for this setting: in vivo strain (footnote b), read-out: Spn(b) MIC.
Setting [9] is: in vivo strain (footnote c), read-out: Spn(c) MIC.

≈ marks a conversion by molar mass, not a printed value. Like-named read-outs stand apart in the source and are kept apart here.

For the molecule `C[C@H]1COc2c(N3CCN(C)CC3)c(F)cc3c(=O)c(C(=O)O)cn1c23` [levofloxacin], the “change in susceptibility of Example 5-selected variants” value in experiment [1] was ≤ 4 fold. Further, the “minimum bactericidal concentrations (MBCs) relative to the MIC” value in [2] was ≤ 2 fold.
The term MIC50 denotes the lowest concentration that inhibits either 50% of growth or 50% of the strains tested, depending on the study. The term MIC90 denotes an inhibitory concentration at the 90% level, which refers to growth in some studies and to a panel of isolates in others. In the experiment with Neisseria gonorrhoeae, `C=CC1=C(C(=O)O)N2C(=O)[C@@H](NC(=O)/C(=N\OCC(=O)O)c3csc(N)n3)[C@H]2SC1` [cefixime, reference compound] displayed an MIC50 of 0.03 µg/mL (≈ 0.0662 µM) and an MIC90 of 0.06 µg/mL (≈ 0.132 µM).
With `CN[C@H](CC(C)C)C(=O)N[C@H]1C(=O)N[C@@H](CC(N)=O)C(=O)N[C@H]2C(=O)N[C@H]3C(=O)N[C@H](C(=O)N[C@H](C(=O)O)c4cc(O)cc(O)c4-c4cc3ccc4O)[C@H](O)c3ccc(c(Cl)c3)Oc3cc2cc(c3O[C@@H]2O[C@H](CO)[C@@H](O)[C@H](O)[C@H]2O[C@H]2C[C@](C)(N)[C@H](O)[C@H](C)O2)Oc2ccc(cc2Cl)[C@H]1O` [vancomycin], the “change in susceptibility of Example 5-selected variants” value in experiment [1] is on record as ≤ 4 fold. For the same molecule, the “minimum bactericidal concentrations (MBCs) relative to the MIC” value in [2] is ≤ 2 fold.
`CO/N=C(\C(=O)N[C@@H]1C(=O)N2C(C(=O)O)=C(CSc3nc(=O)c(O)nn3C)CS[C@H]12)c1csc(N)n1` [ceftriazone, reference compound] returned an MIC90 in the experiment on Neisseria gonorrhoeae of 0.06 µg/mL (≈ 0.108 µM).
For the molecule `CC(=O)NC[C@H]1CN(c2ccc(N3CCOCC3)c(F)c2)C(=O)O1` [linezolid], the “change in susceptibility of Example 5-selected variants” value in experiment [1] is on record as ≤ 4 fold.
`CO/N=C(\C(=O)N[C@@H]1C(=O)N2C(C(=O)O)=C(CSc3nc(=O)c(O)nn3C)CS[C@H]12)c1csc(N)n1` [ceftriaxone, reference compound] gave an MIC50 against Neisseria gonorrhoeae of 0.015 µg/mL (≈ 0.027 µM).
With `CC[C@H]1OC(=O)[C@H](C)[C@@H](O[C@H]2C[C@@](C)(OC)[C@@H](O)[C@H](C)O2)[C@H](C)[C@@H](O[C@@H]2O[C@H](C)C[C@H](N(C)C)[C@H]2O)[C@](C)(O)C[C@@H](C)CN(C)[C@H](C)[C@@H](O)[C@]1(C)O` [azithromycin, reference compound], the MIC50 in the experiment with Neisseria gonorrhoeae (setting [4]) was 0.25 µg/mL (≈ 0.334 µM). The MIC90 in the experiment on Neisseria gonorrhoeae (setting [5]) was found to be 0.5 µg/mL (≈ 0.668 µM).
`CN(C)[C@@H]1C(=O)C(C(N)=O)=C(O)[C@@]2(O)C(=O)C3=C(O)c4c(O)cccc4[C@@](C)(O)[C@H]3C[C@@H]12` [tetracycline, reference compound]: in the experiment with Neisseria gonorrhoeae, the MIC50 was 1 µg/mL (≈ 2.25 µM) and the MIC90 stood at 2 µg/mL (≈ 4.5 µM).
By IC50 is commonly meant the concentration needed to halve the response being measured. `C[C@@H]1CN2c3c(cc4c(N5C[C@@H](CO)OC5=O)noc4c3F)CC3(C(=O)NC(=O)NC3=O)[C@H]2[C@H](C)O1` [Example 26, (2R,4S,4aS)-11-Fluoro-8-((S)-5-(hydroxymethyl)-2-oxooxazolidin-3-yl)-2,4-dimethyl-2,4,4a,6-tetrahydro-1H,1′H-spiro[isoxazolo[4,5-g][1,4]oxazino[4,3-a]quinoline-5,5′-pyrimidine]-2′,4′,6′(3′H)-trione] displayed an IC50 in experiment [3] of 170 nM. For the same molecule, the MIC in the experiment with Pseudomonas aeruginosa is > 200 µM; with Klebsiella pneumoniae, > 200 µM; in the experiment with Haemophilus influenzae, < 0.2 µM; in the experiment with Escherichia coli it was 25 µM (≈ 12.6 µg/mL); in the experiment on Staphylococcus aureus (setting [6]), 2.2 µM (≈ 1.11 µg/mL); with Staphylococcus aureus (setting [7]), 12 µM (≈ 6.04 µg/mL). Further, the MIC with Staphylococcus aureus (serum, read-out: Sau(f) MIC) was 1.6 µM (≈ 0.806 µg/mL); in the experiment with Streptococcus pneumoniae (setting [8]), 0.28 µM (≈ 0.141 µg/mL); in the experiment on Streptococcus pneumoniae (setting [9]), 0.55 µM (≈ 0.277 µg/mL); in the experiment with Streptococcus pyogenes, < 0.2 µM.
Turning to `C[C@@H]1CN2c3c(cc4c(N5C(=O)OC[C@@H]5CCCF)noc4c3Cl)CC3(C(=O)NC(=O)NC3=O)[C@H]2[C@H](C)O1` [Example 34, (2R,4S,4aS)-11-Chloro-8-((S)-4-(3-fluoropropyl)-2-oxooxazolidin-3-yl)-2,4-dimethyl-2,4,4a,6-tetrahydro-1H,1′H-spiro[isoxazolo[4,5-g][1,4]oxazino[4,3-a]quinoline-5,5′-pyrimidine]-2′,4′,6′(3′H)-trione], the IC50 in experiment [3] was 230 nM. The MIC was > 200 µM with Pseudomonas aeruginosa; 200 µM (≈ 110 µg/mL) in the experiment with Klebsiella pneumoniae; 0.39 µM (≈ 0.214 µg/mL) in the experiment on Haemophilus influenzae; 25 µM (≈ 13.7 µg/mL) with Escherichia coli; < 0.2 µM with Staphylococcus aureus (setting [6]); 0.78 µM (≈ 0.429 µg/mL) in the experiment with Staphylococcus aureus (setting [7]). The MIC was determined as 1.6 µM (≈ 0.88 µg/mL) in the experiment on Staphylococcus aureus (serum, read-out: Sau(f) MIC); 0.39 µM (≈ 0.214 µg/mL) in the experiment on Streptococcus pneumoniae (setting [8]); 0.39 µM (≈ 0.214 µg/mL) in the experiment with Streptococcus pneumoniae (setting [9]); 0.39 µM (≈ 0.214 µg/mL) with Streptococcus pyogenes.
For the molecule `CC1(C)S[C@@H]2[C@H](NC(=O)Cc3ccccc3)C(=O)N2[C@H]1C(=O)O` [penicillin, reference compound], the MIC50 in the experiment on Neisseria gonorrhoeae (setting [4]) turned out to be 2 µg/mL (≈ 5.98 µM). The MIC90 in the experiment with Neisseria gonorrhoeae (setting [5]) was > 2 µg/mL.
